Assay results taken from patent publication US10208019B2, “GLP-1 receptor agonists and uses thereof” (Pfizer Inc., priority 2016, dated 2019).

Legend:
human GLP-1R [1] = target: human GLP-1R (Homo sapiens (Human), UniProt P43220, L260F); assay: CHO GLP-1R Clone C6—Assay 2: HTRF cAMP cell-based functional agonist assay (low GLP-1R density); conditions: for EC50: CHO GLP-1R Clone C6, cAMP HTRF, geometric mean; for Emax: CHO GLP-1R Clone C6, relative to saturating concentration of full agonist GLP-1 (1 μM), arithmetic mean, read-out: Assay 2 Emax (%)
human GLP-1R [2] = target: human GLP-1R (Homo sapiens, UniProt P43220, G168S); assay: CHO GLP-1R Clone H6—Assay 1: HTRF cAMP cell-based functional agonist assay (high GLP-1R density); conditions: for EC50: read-out: Assay 1 EC50, CHO GLP-1R Clone H6, cAMP HTRF, geometric mean; for Emax: read-out: Assay 1 Emax (%), CHO GLP-1R Clone H6, relative to saturating concentration of full agonist GLP-1 (1 μM), arithmetic mean
Sequence of human GLP-1R (Homo sapiens, UniProt P43220, G168S) (P43220 24-463 G168S limits assumed): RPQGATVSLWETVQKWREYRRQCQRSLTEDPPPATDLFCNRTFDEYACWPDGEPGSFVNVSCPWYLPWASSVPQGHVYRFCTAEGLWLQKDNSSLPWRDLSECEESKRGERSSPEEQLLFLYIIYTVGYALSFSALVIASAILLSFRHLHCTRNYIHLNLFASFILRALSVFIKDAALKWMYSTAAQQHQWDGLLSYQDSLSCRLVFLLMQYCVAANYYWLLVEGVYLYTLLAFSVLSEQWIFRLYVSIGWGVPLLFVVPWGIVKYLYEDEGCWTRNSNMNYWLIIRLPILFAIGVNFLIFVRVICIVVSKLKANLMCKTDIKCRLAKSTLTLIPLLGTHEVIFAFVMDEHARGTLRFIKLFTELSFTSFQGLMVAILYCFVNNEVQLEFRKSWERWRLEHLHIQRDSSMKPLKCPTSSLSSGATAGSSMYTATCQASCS

Sequence of human GLP-1R (Homo sapiens (Human), UniProt P43220, L260F) (P43220 24-463 L260F): as the sequence (P43220 24-463 G168S limits assumed) above, with S145G, L237F counted along it

| SMILES | EC50 (human GLP-1R [1]) | Emax (human GLP-1R [1]) | EC50 (human GLP-1R [2]) | Emax (human GLP-1R [2]) |
| --- | --- | --- | --- | --- |
| C[C@H]1CN(c2ccc(F)c(OCc3ccc(F)cc3F)n2)CCN1Cc1nc2ccc(C(=O)O)cc2n1C[C@@H]1CCO1 [Example 10A-56, 2-{[(2S)-4-{6-[(2,4-difluorobenzyl)oxy]-5-fluoropyridin-2-yl}-2-methylpiperazin-1-yl]methyl}-1-[(2S)-oxetan-2-ylmethyl]-1H-benzimidazole-6-carboxylic acid] | 16 nM | 86% | 0.5 nM | 78% |
| C[C@H]1CN(c2ccc(F)c(OCc3ccc(F)cc3F)n2)CCN1Cc1nc2ccc(C(=O)O)cc2n1C[C@H]1CCO1 [Example 10A-57] | 160 nM | 71% | 9.4 nM | 69% |
| C[C@H]1CN(c2cccc(OCc3ccc(F)cc3F)n2)CCN1Cc1nc2ccc(C(=O)O)cc2n1C[C@@H]1CCO1 [Example 10A-58, 2-{[(2S)-4-{6-[(2,4-difluorobenzyl)oxy]pyridin-2-yl}-2-methylpiperazin-1-yl]methyl}-1-[(2S)-oxetan-2-ylmethyl]-1H-benzimidazole-6-carboxylic acid] | 8.5 nM | 78% | 0.52 nM | 70% |
| O=C(O)c1ccc2nc(CN3CCC(c4cccc(OCc5ccc(Cl)cc5F)n4)CC3)n([C@@H]3CCOC3)c2c1 [Example 10A-60] | 460 nM | 66% | 31 nM | 81% |
| N#Cc1ccc(COc2cccc(N3CCN(Cc4nc5ccc(C(=O)O)cc5n4Cc4cnco4)CC3)n2)c(F)c1 [Example 10A-61, 2-[(4-{6-[(4-cyano-2-fluorobenzyl)oxy]pyridin-2-yl}piperazin-1-yl)methyl]-1-(1,3-oxazol-5-ylmethyl)-1H-benzimidazole-6-carboxylic acid] | 35 nM | 89% | 1.5 nM | 74% |
| O=C(O)c1ccc2nc(CN3CCC(c4cccc(OCc5ccc(Cl)cc5F)n4)CC3)n(Cc3ccno3)c2c1 [Example 10A-64, 2-[(4-{6-[(4-chloro-2-fluorobenzyl)oxy]pyridin-2-yl}piperidin-1-yl)methyl]-1-(1,2-oxazol-5-ylmethyl)-1H-benzimidazole-6-carboxylic acid] | 32 nM | 79% | 2 nM | 82% |
| N#Cc1ccc(COc2cccc(C3CCN(Cc4nc5ccc(C(=O)O)cc5n4Cc4ccon4)CC3)n2)c(F)c1 [Example 10A-65, 2-[(4-{6-[(4-cyano-2-fluorobenzyl)oxy]pyridin-2-yl}piperidin-1-yl)methyl]-1-(1,2-oxazol-3-ylmethyl)-1H-benzimidazole-6-carboxylic acid] | 35 nM | 78% | 1.6 nM | 84% |

The remaining lines, values ahead:

| EC50 (human GLP-1R [1]) | Emax (human GLP-1R [1]) | EC50 (human GLP-1R [2]) | Emax (human GLP-1R [2]) | SMILES |
| --- | --- | --- | --- | --- |
| 84 nM | 83% | 4.7 nM | 71% | C[C@H]1CN(c2cccc(OCc3ccc(C#N)cc3F)n2)CCN1Cc1nc2ccc(C(=O)O)cc2n1C[C@H]1CCOC1 [Example 10A-59] |
| 28 nM | 97% | 2.9 nM | 96% | CCn1nncc1Cn1c(CN2CCN(c3cccc(OCc4ccc(C#N)cc4F)n3)CC2)nc2ccc(C(=O)O)cc21 [Example 10A-62, 2-[(4-{6-[(4-cyano-2-fluorobenzyl)oxy]pyridin-2-yl}piperazin-1-yl)methyl]-1-[(1-ethyl-1H-1,2,3-triazol-5-yl)methyl]-1H-benzimidazole-6-carboxylic acid] |
| 11 nM | 110% | 0.58 nM | 86% | CCn1cncc1Cn1c(CN2CCN(c3cccc(OCc4ccc(C#N)cc4F)n3)C[C@@H]2C)nc2ccc(C(=O)O)cc21 [Example 10A-63] |
| 3.4 nM | 100% | 0.39 nM | 84% | CCn1cncc1Cn1c(CN2CCC(c3cccc(OCc4ccc(C#N)cc4F)n3)CC2)nc2ccc(C(=O)O)cc21 [Example 10A-66, 2-[(4-{6-[(4-cyano-2-fluorobenzyl)oxy]pyridin-2-yl}piperidin-1-yl)methyl]-1-[(1-ethyl-1H-imidazol-5-yl)methyl]-1H-benzimidazole-6-carboxylic acid] |
